Source: patent US20180353460A1, “METHODS OF TREATING UROLOGICAL DISORDERS USING SARMs” (priority 2014, published 2018)
Values joined by “and” are separate entries in the source; they are usually repeats but may differ in a detail not shown here. Identical values can stand only once.

Test system: prostate, seminal vesicles and levator ani muscle
Test: Androgenic and anabolic activity in castrated (ORX) male rats, daily oral gavage for fourteen days
Assay type: in vivo, rat
Conditions: for ED50 in levator ani / ED50 in prostate / ED50 in seminal vesicles / Emax in levator ani / Emax in prostate / Emax in seminal vesicles: ORX rats, nonlinear regression; for dose that fully maintained or restored levator ani muscle weight (100% of intact) / levator ani muscle weight / prostate weight / seminal vesicle weight: castrated (ORX) rats; for levator ani muscle weight / prostate weight / seminal vesicle weight: oral gavage 14 days
Experimental: Male Sprague-Dawley rats weighing approximately 200 g were purchased from Harlan Bioproducts for Science (Indianapolis, Ind.). […] The anabolic and androgenic activity of compound of Formula VIII in intact animals was tested, as well as a dose response evaluation in acutely orchidectomized (ORX) animals. Regenerative effects of the compound of Formula VIII in chronically (9 days) ORX rats was similarly evaluated.
The test article for this study was weighed and dissolved in 10% DMSO (Fisher) diluted with PEG 300 (Acros Organics, NJ) for preparation of the appropriate dosage concentrations. […] Animals were randomly assigned to one of seven groups consisting of 4 to 5 animals per group. Control groups (intact and ORX) were administered vehicle daily. Compound of Formula VIII was administered via oral gavage at doses of 0.01, 0.03, 0.1, 0.3, 0.75, and 1 mg/day to both intact and ORX groups. Where appropriate, animals were castrated on day one of the study. Treatment with compound of Formula VIII began nine days post ORX and was administered daily via oral gavage for fourteen days.
(§1) In addition, ventral prostate, seminal vesicles, and levator ani muscle were removed, individually weighed, normalized to body weight, and expressed as a percentage of intact control. Student's T-test was used to compare individual dose groups to the intact control group. Significance was defined a priori as a P-value <0.05. Ventral prostate and seminal vesicle weights were evaluated as a measure of androgenic activity, whereas levator ani muscle weight was evaluated as a measure of anabolic activity. Blood was collected from the abdominal aorta, centrifuged, and sera were frozen at −80° C. prior to determination of serum hormone levels. Serum luteinizing hormone (LH) and follicle stimulating hormone (FSH) concentrations were determined.
Male Sprague-Dawley rats weighing approximately 200 g were purchased from Harlan Bioproducts for Science (Indianapolis, Ind.). […] Anabolic and androgenic activity of compound of Formula IX in intact animals was evaluated, and the dose response in acutely orchidectomized (ORX) animals was evaluated as well. Regenerative effects of compound of Formula IX in chronically (9 days) ORX rats were also assessed.
The compound was weighed and dissolved in 10% DMSO (Fisher) diluted with PEG 300 (Acros Organics, NJ) for preparation of the appropriate dosage concentrations. […] Intact and ORX animals were randomly assigned to one of seven groups consisting of 4 to 5 animals per group. Control groups (intact and ORX) were administered vehicle daily. Compound of Formula IX was administered via oral gavage at doses of 0.01, 0.03, 0.1, 0.3, 0.75, and 1 mg/day to both intact and ORX groups.
as §1, with “Castrated animals (on day one of the study) were randomly assigned to dose groups (4-5 animals/group) of 0.01, 0.03, 0.1, 0.3, 0.75, and 1 mg/day, for dose-response evaluation. Dosing began nine days post ORX and was administered daily via oral gavage for fourteen days. […] In” for “In”, “As a measure of androgenic activity, ventral” for “Ventral”, “evaluated,” for “evaluated as a measure of androgenic activity,”, “lutenizing” for “luteinizing”
Male Sprague-Dawley rats weighing approximately 200 g were purchased from Harlan Bioproducts for Science (Indianapolis, Ind.).

## C[C@](O)(COc1ccc(C#N)cc1)C(=O)Nc1ccc(C#N)c(C(F)(F)F)c1 [Compound IX, (S)—N-(4-Cyano-3-(trifluoromethyl)phenyl)-3-(4-cyanophenoxy)-2-hydroxy-2-methylpropanamide]
  ED50 in levator ani: 0.02 ± 0.01 mg/day
  ED50 in prostate: 0.09 ± 0.07 mg/day
  ED50 in seminal vesicles: 0.17 ± 0.05 mg/day
  Emax in levator ani: 131%±2%
  Emax in prostate: 83%±25%
  Emax in seminal vesicles: 85%±11%
Oral gavage
  dose that fully maintained or restored levator ani muscle weight (100% of intact): > 0.1 mg/day
0.01 mg/day
  levator ani muscle weight: 59%±6%
  prostate weight: 8%±2%
  seminal vesicle weight: 12%±4%
0.03 mg/day
  levator ani muscle weight: 85%±9%
  prostate weight: 20%±5%
  seminal vesicle weight: 17%±5%
0.1 mg/day
  levator ani muscle weight: 112%±10%
  prostate weight: 51%±19%
  seminal vesicle weight: 35%±10%
0.3 mg/day
  levator ani muscle weight: 122%±16%
  prostate weight: 56%±9%
  seminal vesicle weight: 61%±15%
0.75 mg/day
  levator ani muscle weight: 127±12%
  prostate weight: 80%±28%
  seminal vesicle weight: 70%±14%
1 mg/day
  levator ani muscle weight: 129.66±2%
  prostate weight: 74±12.5%
  seminal vesicle weight: 80%±6%

## C[C@](O)(COc1ccc(C#N)cc1)C(=O)Nc1ccc(C#N)c(Cl)c1 [VIII, (S)—N-(3-Chloro-4-cyanophenyl)-3-(4-cyanophenoxy)-2-hydroxy-2-methylpropanamide]
0.01 mg/day
  levator ani muscle weight: 52%±8%
  prostate weight: 17%±6%
  seminal vesicle weight: 10%±3%
0.03 mg/day
  levator ani muscle weight: 67%±9%
  prostate weight: 31%±3%
  seminal vesicle weight: 13%±4%
0.1 mg/day
  levator ani muscle weight: 98%±10%
  prostate weight: 43%±15% and 43±15%
  seminal vesicle weight: 21%±6%
0.3 mg/day
  levator ani muscle weight: 103%±12%
  prostate weight: 54%±17%
  seminal vesicle weight: 43%±8%
0.75 mg/day
  levator ani muscle weight: 105%±12%
  prostate weight: 58%±10%
  seminal vesicle weight: 51%±9%
1 mg/day
  levator ani muscle weight: 110%±17% and 110±17%
  prostate weight: 73%±12% and 73±12%
  seminal vesicle weight: 69%±14%
Castrated rats, 0.01 mg/day
  anabolic ratio muscle/prostate weight: 3.02
Castrated rats, 0.03 mg/day
  anabolic ratio muscle/prostate weight: 2.13
Castrated rats, 0.1 mg/day
  anabolic ratio muscle/prostate weight: 2.27
Castrated rats, 0.3 mg/day
  anabolic ratio muscle/prostate weight: 1.90
Castrated rats, 0.75 mg/day
  anabolic ratio muscle/prostate weight: 1.83
Castrated rats, 1 mg/day
  anabolic ratio muscle/prostate weight: 1.51
Castrated rats, oral gavage
  derived dose that would restore levator ani muscle weight to 100%: 0.1 mg/day

## C[C@](O)(COc1ccc(C#N)c(F)c1)C(=O)Nc1ccc(C#N)c(C(F)(F)F)c1 [XIII, (S)—N-(4-cyano-3-(trifluoromethyl)phenyl)-3-(4-cyano-3-fluorophenoxy)-2-hydroxy-2-methylpropanamide]
  ED50 in levator ani: 0.03 ± 0.01 mg/day
  ED50 in prostate: 0.21 ± 0.04 mg/day
  ED50 in seminal vesicles: 0.2 ± 0.04 mg/day
  Emax in levator ani: 147%±10%
  Emax in prostate: 147%±10%
  Emax in seminal vesicles: 188%±135%
Oral gavage
  dose that fully maintained or restored levator ani muscle weight (100% of intact): 0.03 mg/day
0.01 mg/day
  levator ani muscle weight: 71%±4%
  prostate weight: 24%±4%
  seminal vesicle weight: 15%±2%
0.03 mg/day
  levator ani muscle weight: 101%±15%
  prostate weight: 37%±9%
  seminal vesicle weight: 25%±9%
0.1 mg/day
  levator ani muscle weight: 125%±20%
  prostate weight: 50%±11%
  seminal vesicle weight: 67%±20%
0.3 mg/day
  levator ani muscle weight: 126%±14%
  prostate weight: 88%±16%
  seminal vesicle weight: 113%±6%
0.75 mg/day
  levator ani muscle weight: 151±9%
  prostate weight: 132%±16%
  seminal vesicle weight: 155%±16%
1 mg/day
  levator ani muscle weight: 143±17%
  prostate weight: 118±12%
  seminal vesicle weight: 160%±7%
